Converted amounts (≈) assume the structure as drawn. The source made the active and inactive calls. No cut-off for these calls is given here.
What was measured:
Escherichia coli [1] = experiment: Antimicrobial activity against Escherichia coli BW25113 incubated for 16 to 18 hrs by macrodilution method; type: functional
Escherichia coli [2] = experiment: Antimicrobial activity against Escherichia coli BW25113 expressing delta-tolC gene incubated for 16 to 18 hrs by macrodilution method; type: functional
Staphylococcus aureus [3] = experiment: Antimicrobial activity against Staphylococcus aureus incubated at 37 degC overnight for 18 hrs; type: functional
Escherichia coli [4] = experiment: Antimicrobial activity against Escherichia coli MG1655 incubated at 37 degC overnight for 18 hrs; type: functional; settings: MG1655, 18 h
Klebsiella aerogenes = experiment: Antimicrobial activity against Enterobacter aerogenes incubated for 16 to 18 hrs by macrodilution method; type: functional
Klebsiella pneumoniae = experiment: Antimicrobial activity against Klebsiella pneumoniae incubated for 16 to 18 hrs by macrodilution method; type: functional
Salmonella typhimurium = experiment: Antimicrobial activity against Salmonella typhimurium incubated for 16 to 18 hrs by macrodilution method; type: functional, Salmonella enterica subsp. enterica serovar Typhimurium; settings: Salmonella enterica
Acinetobacter baumannii = experiment: Antimicrobial activity against Acinetobacter baumannii incubated for 16 to 18 hrs by macrodilution method; type: functional
Francisella tularensis = experiment: Antimicrobial activity against Francisella tularensis incubated for 16 to 18 hrs by macrodilution method; type: functional
Bacillus anthracis = experiment: Antimicrobial activity against Bacillus anthracis incubated for 16 to 18 hrs by macrodilution method; type: functional
Edwardsiella tarda = experiment: Antimicrobial activity against Edwardsiella tarda incubated for 16 to 18 hrs by macrodilution method; type: functional
Escherichia coli [5] = experiment: Antimicrobial activity against Escherichia coli MG1655 at 2.5 to 80 uM incubated at 37 degC overnight for 18 hrs in presence of ampicillin by checkerboard assay; type: functional, organism-based
Staphylococcus aureus [6] = experiment: Potentiation of kanamycin-induced antimicrobial effect against Staphylococcus aureus at 2.5 to 80 uM incubated at 37 degC overnight for 18 hrs in presence of kanamycin by checkerboard assay; type: functional, organism-based
Escherichia coli [7] = experiment: Synergistic potentiation of kanamycin-induced antimicrobial effect against Escherichia coli MG1655 at 2.5 to 80 uM incubated at 37 degC overnight for 18 hrs in presence of >4 uM kanamycin by checkerboard assay; type: functional, organism-based
Morganella morganii = experiment: Antimicrobial activity against Morganella morganii incubated for 16 to 18 hrs by macrodilution method; type: functional
Staphylococcus aureus [8] = experiment: Synergistic potentiation of ampicillin-induced antimicrobial effect against Staphylococcus aureus at 2.5 to 80 uM incubated at 37 degC overnight for 18 hrs in presence of >4 uM ampicillin by checkerboard assay; type: functional, organism-based
Yersinia pestis = experiment: Antimicrobial activity against Yersinia pestis incubated for 16 to 18 hrs by macrodilution method; type: functional
Escherichia coli [9] = experiment: Synergistic potentiation of ampicillin-induced antimicrobial effect against Escherichia coli MG1655 at 2.5 to 80 uM incubated at 37 degC overnight for 18 hrs in presence of >4 uM ampicillin by checkerboard assay; type: functional, organism-based
[10] = test system: Burkholderia pseudomallei; experiment: Antimicrobial activity against Burkholderia pseudomallei incubated for 16 to 18 hrs by macrodilution method; type: functional
Escherichia coli [11] = experiment: Potentiation of novobiocin-induced antimicrobial effect against Escherichia coli MG1655 at 2.5 to 80 uM incubated at 37 degC overnight for 18 hrs in presence of novobiocin by checkerboard assay; type: functional, organism-based
Burkholderia mallei = experiment: Antimicrobial activity against Burkholderia mallei incubated for 16 to 18 hrs by macrodilution method; type: functional
Staphylococcus aureus [12] = experiment: Antimicrobial activity against Staphylococcus aureus Newman incubated for 16 to 18 hrs by macrodilution method; type: functional
Vibrio cholerae = experiment: Antimicrobial activity against Vibrio cholerae incubated for 16 to 18 hrs by macrodilution method; type: functional
Shigella boydii = experiment: Antimicrobial activity against Shigella boydii incubated for 16 to 18 hrs by macrodilution method; type: functional

In the case of `CCC(CO)(CO)NCC(O)Cn1c2ccc(Cl)cc2c2cc(Cl)ccc21` (stereo not drawn), the MIC (Escherichia coli [1]) is reported as 160 µM (≈ 65.8 µg/mL) and the MIC (Escherichia coli [2]) is reported as 20 µM (≈ 8.23 µg/mL).
With `CC1(C)S[C@@H]2[C@H](NC(=O)[C@H](N)c3ccccc3)C(=O)N2[C@H]1C(=O)O` [AMPICILLIN] the MIC (Staphylococcus aureus [3]) was 1 µM (≈ 0.349 µg/mL) and the MIC (Escherichia coli [4]) was 10 µM (≈ 3.49 µg/mL).
`CC(CO)(CO)NCC(O)Cn1c2ccc(Cl)cc2c2cc(Cl)ccc21` (stereo not drawn) showed an MIC (Escherichia coli [1]) of 80 µM (≈ 31.8 µg/mL) and an MIC (Escherichia coli [2]) of 40 µM (≈ 15.9 µg/mL).
Work on `CO[C@@H]1[C@@H](OC(N)=O)[C@@H](O)[C@H](Oc2ccc3c(O)c(NC(=O)c4ccc(O)c(CC=C(C)C)c4)c(=O)oc3c2C)OC1(C)C` [NOVOBIOCIN] yielded an MIC (Escherichia coli [4]) of 320 µM (≈ 196 µg/mL) and an MIC (Escherichia coli [2]) of 1.2 µM (≈ 0.735 µg/mL).
`CC(C)CCNCC(O)Cn1c2ccc(Cl)cc2c2cc(Cl)ccc21` (stereo not drawn) was tested, and the MIC (Klebsiella aerogenes) was 50 µM (≈ 19 µg/mL), the MIC (Klebsiella pneumoniae) was 50 µM (≈ 19 µg/mL) and the MIC (Salmonella typhimurium) was 50 µM (≈ 19 µg/mL). The MIC (Acinetobacter baumannii) was 12.5 µM (≈ 4.74 µg/mL), the MIC50 (Francisella tularensis) was 5 µM (≈ 1.9 µg/mL) and the MIC90 (Francisella tularensis) was 10 µM (≈ 3.79 µg/mL). It also gave an MIC50 (Bacillus anthracis) of 5 µM (≈ 1.9 µg/mL), an MIC90 (Bacillus anthracis) of 5 µM (≈ 1.9 µg/mL) and an MIC (Edwardsiella tarda) of 25 µM (≈ 9.48 µg/mL). The Activity (Escherichia coli [5]) was “Active”, the Activity (Staphylococcus aureus [6]) was “inactive” and the Activity (Escherichia coli [7]) was “Active”. The MIC (Morganella morganii) was 50 µM (≈ 19 µg/mL), the Activity (Staphylococcus aureus [8]) was “Active” and the MIC50 (Yersinia pestis) was 21 µM (≈ 7.97 µg/mL). The MIC90 (Yersinia pestis) was 42 µM (≈ 15.9 µg/mL), the MIC (Escherichia coli [1]) was 40 µM (≈ 15.2 µg/mL) and the Activity (Escherichia coli [9]) was “Active”. The MIC50 [10] was 170 µM (≈ 64.5 µg/mL), the MIC90 [10] was ≥ 170 µM and the Activity (Escherichia coli [11]) was “inactive”. For the same compound, the MIC (Escherichia coli [2]) was 2.5 µM (≈ 0.948 µg/mL), the MIC50 (Burkholderia mallei) was 21 µM (≈ 7.97 µg/mL) and the MIC90 (Burkholderia mallei) was 42 µM (≈ 15.9 µg/mL). It also gave an MIC (Staphylococcus aureus [12]) of 5 µM (≈ 1.9 µg/mL), an MIC (Vibrio cholerae) of 6.25 µM (≈ 2.37 µg/mL) and an MIC (Shigella boydii) of 25 µM (≈ 9.48 µg/mL).
In the case of `NC[C@H]1O[C@H](O[C@H]2[C@H](O)[C@@H](O[C@H]3O[C@H](CO)[C@@H](O)[C@H](N)[C@H]3O)[C@H](N)C[C@@H]2N)[C@H](O)[C@@H](O)[C@@H]1O` [KANAMYCIN], the MIC (Staphylococcus aureus [3]) is reported as 2.5 µM (≈ 1.21 µg/mL) and the MIC (Escherichia coli [4]) is reported as 10 µM (≈ 4.85 µg/mL).
Work on `CCCCCNCC(O)Cn1c2ccc(Cl)cc2c2cc(Cl)ccc21` (stereo not drawn) yielded an MIC (Escherichia coli [1]) of 80 µM (≈ 30.3 µg/mL) and an MIC (Escherichia coli [2]) of 5 µM (≈ 1.9 µg/mL).
`OC(CNC1CCCCC1)Cn1c2ccc(Cl)cc2c2cc(Cl)ccc21` (stereo not drawn) was tested, and the MIC (Klebsiella aerogenes) was > 200 µM, the MIC (Klebsiella pneumoniae) was > 200 µM and the MIC (Salmonella typhimurium) was 100 µM (≈ 39.1 µg/mL). The MIC (Acinetobacter baumannii) was 25 µM (≈ 9.78 µg/mL), the MIC50 (Francisella tularensis) was 2.5 µM (≈ 0.978 µg/mL) and the MIC90 (Francisella tularensis) was 10 µM (≈ 3.91 µg/mL). The MIC50 (Bacillus anthracis) was 5 µM (≈ 1.96 µg/mL), the MIC90 (Bacillus anthracis) was 10 µM (≈ 3.91 µg/mL) and the MIC (Edwardsiella tarda) was 50 µM (≈ 19.6 µg/mL). For the same compound, the MIC (Morganella morganii) was > 200 µM, the MIC50 (Yersinia pestis) was 41 µM (≈ 16 µg/mL) and the MIC90 (Yersinia pestis) was 82 µM (≈ 32.1 µg/mL). The MIC (Escherichia coli [1]) was 40 µM (≈ 15.7 µg/mL), the MIC50 [10] was 164 µM (≈ 64.2 µg/mL) and the MIC90 [10] was ≥ 164 µM. The MIC (Escherichia coli [2]) was 2.5 µM (≈ 0.978 µg/mL), the MIC50 (Burkholderia mallei) was 21 µM (≈ 8.22 µg/mL) and the MIC90 (Burkholderia mallei) was 82 µM (≈ 32.1 µg/mL). For the same compound, the MIC (Staphylococcus aureus [12]) was 5 µM (≈ 1.96 µg/mL), the MIC (Vibrio cholerae) was 6.25 µM (≈ 2.45 µg/mL) and the MIC (Shigella boydii) was 50 µM (≈ 19.6 µg/mL).
For `OCC(CO)(CO)NCC(O)Cn1c2ccc(Cl)cc2c2cc(Cl)ccc21` (racemic), the MIC (Klebsiella aerogenes) was 200 µM (≈ 82.7 µg/mL), the MIC (Klebsiella pneumoniae) was 200 µM (≈ 82.7 µg/mL) and the MIC (Salmonella typhimurium) was 100 µM (≈ 41.3 µg/mL). It also gave an MIC (Acinetobacter baumannii) of 200 µM (≈ 82.7 µg/mL), an MIC (Edwardsiella tarda) of 100 µM (≈ 41.3 µg/mL) and an MIC (Morganella morganii) of 200 µM (≈ 82.7 µg/mL). The MIC (Escherichia coli [1]) was 80 µM (≈ 33.1 µg/mL), the MIC (Escherichia coli [2]) was 20 µM (≈ 8.27 µg/mL) and the MIC (Staphylococcus aureus [12]) was 40 µM (≈ 16.5 µg/mL). The MIC (Vibrio cholerae) was 50 µM (≈ 20.7 µg/mL) and the MIC (Shigella boydii) was 100 µM (≈ 41.3 µg/mL).
In the case of `OCC(CO)NCC(O)Cn1c2ccc(Cl)cc2c2cc(Cl)ccc21` (stereo not drawn), the MIC (Escherichia coli [1]) is reported as 40 µM (≈ 15.3 µg/mL) and the MIC (Escherichia coli [2]) is reported as 20 µM (≈ 7.67 µg/mL).
In the case of `CC(C)(C)NCC(O)Cn1c2ccc(Cl)cc2c2cc(Cl)ccc21` (stereo not drawn), the MIC (Escherichia coli [1]) is reported as 160 µM (≈ 58.4 µg/mL) and the MIC (Escherichia coli [2]) is reported as 40 µM (≈ 14.6 µg/mL).
In the case of `OCC(CO)(CO)NCC(O)Cn1c2ccccc2c2ccccc21` (stereo not drawn), the MIC (Escherichia coli [1]) is reported as > 320 µM and the MIC (Escherichia coli [2]) is reported as > 80 µM.
For `CCC(CC)NCC(O)Cn1c2ccc(Cl)cc2c2cc(Cl)ccc21` (stereo not drawn), the MIC (Escherichia coli [1]) was 80 µM (≈ 30.3 µg/mL) and the MIC (Escherichia coli [2]) was 5 µM (≈ 1.9 µg/mL).
With `CCC(CC)CNCC(O)Cn1c2ccc(Cl)cc2c2cc(Cl)ccc21` (stereo not drawn) the MIC (Klebsiella aerogenes) was > 200 µM, the MIC (Klebsiella pneumoniae) was > 200 µM and the MIC (Salmonella typhimurium) was 200 µM (≈ 78.7 µg/mL). The MIC (Acinetobacter baumannii) was 25 µM (≈ 9.83 µg/mL), the MIC (Edwardsiella tarda) was 12.5 µM (≈ 4.92 µg/mL) and the MIC (Morganella morganii) was > 200 µM. It also gave an MIC (Escherichia coli [1]) of 80 µM (≈ 31.5 µg/mL), an MIC (Escherichia coli [2]) of 2.5 µM (≈ 0.983 µg/mL) and an MIC (Staphylococcus aureus [12]) of 5 µM (≈ 1.97 µg/mL). The MIC (Vibrio cholerae) was 6.25 µM (≈ 2.46 µg/mL) and the MIC (Shigella boydii) was 25 µM (≈ 9.83 µg/mL).
`OCC(CO)(CO)NC[C@H](O)Cn1c2ccc(Cl)cc2c2cc(Cl)ccc21` showed an MIC50 (Francisella tularensis) of 85 µM (≈ 35.1 µg/mL), an MIC90 (Francisella tularensis) of 170 µM (≈ 70.3 µg/mL) and an MIC50 (Bacillus anthracis) of 42 µM (≈ 17.4 µg/mL). The MIC90 (Bacillus anthracis) was 42 µM (≈ 17.4 µg/mL), the MIC50 (Yersinia pestis) was ≥ 170 µM and the MIC90 (Yersinia pestis) was ≥ 170 µM. The MIC (Escherichia coli [1]) was 80 µM (≈ 33.1 µg/mL), the MIC50 [10] was ≥ 170 µM and the MIC90 [10] was ≥ 170 µM. For the same compound, the MIC (Escherichia coli [2]) was 20 µM (≈ 8.27 µg/mL), the MIC50 (Burkholderia mallei) was ≥ 170 µM and the MIC90 (Burkholderia mallei) was ≥ 170 µM.
With `OCC(CO)(CO)NC[C@@H](O)Cn1c2ccc(Cl)cc2c2cc(Cl)ccc21` the MIC (Escherichia coli [1]) was 80 µM (≈ 33.1 µg/mL) and the MIC (Escherichia coli [2]) was 20 µM (≈ 8.27 µg/mL).
Compound `CC(C)CCNCCCn1c2ccc(Cl)cc2c2cc(Cl)ccc21` has an MIC (Escherichia coli [1]) of 80 µM (≈ 29.1 µg/mL) and an MIC (Escherichia coli [2]) of 5 µM (≈ 1.82 µg/mL).
In the case of `OCC(CO)(CO)NCC(O)Cn1ccc2cc(Cl)ccc21` (stereo not drawn), the MIC (Escherichia coli [1]) is reported as > 320 µM and the MIC (Escherichia coli [2]) is reported as 320 µM (≈ 105 µg/mL).

From ChEMBL document CHEMBL3576856, “Membrane-Targeting DCAP Analogues with Broad-Spectrum Antibiotic Activity against Pathogenic Bacteria” (2015)
